Experimental data taken from patent US20230270802A1, “ANTIVIRAL PHARMACEUTICAL COMPOSITION” (GSK CONSUMER HEALTHCARE SARL, priority 2020, published 2023).

What was measured:
Type in all cases: cell-based
[1] = tested on: MucilAir nasal human 3D epithelial model; assay: Cilia beating frequency (CBF), Example 1; conditions: T96h, OC43 infected inserts; Mock 8.5 Hz
Protocol: Cilia beating frequency (CBF) is a parameter that indicates if the nasal epithelia is healthy and carrying out its physiologic function of mucus transport. CBF was measured by a dedicated setup for this purpose. The system consists of three parts: a Sony XCD V60 camera connected to an Olympus BX51 microscope, a PCI card and a specific package of software. The cilia beating frequency is expressed in Hz. […] CBF was then calculated using relevant software. It should be pointed out that CBF values may be subject to fluctuations due to parameters such as temperature, mucus viscosity or liquid applied on the apical surface of the cell model and observed values should be compared to a control condition in each experiment.
At T96h, the ciliary beating frequency (CBF) and the mucociliary clearance (MCC) of all inserts were measured. 200 µl of culture medium was added apically to all inserts and inserts were let sit for 20 minutes at 34° C. During this time, TEER of all inserts was measured. This apical washing liquid was then removed and was stored at -80° C. until the virus copy number was determined. The basal culture medium was removed and stored. 50 µl of the basal culture medium of all inserts was used for the LDH assay.

human coronavirus OC43 = assay: OC43 viral genome copy number in MucilAir nasal epithelium, Example 1; conditions: for Mean viral genome copy number, Log 10 ((Copies/ml) + 1): apical wash, 0.00 = below detection limit
[2] = tested on: MucilAir nasal human 3D epithelial model; assay: Trans-epithelial electronic resistance (TEER), Example 1; conditions: all measured timepoints
Excerpt: Trans-epithelial electronic resistance (TEER) is a dynamic parameter that reflects the state of epithelia and is typically between 200 to 600 Ω.cm^2. An increase of the TEER value reflects a blockage of the ion channel activities of the MucilAir cell culture. A notable decrease of the TEER values, but with the value still above 100 Ω.cm^2 can be observed in certain cases and indicates an activation of the ion channels. Disruption of cellular junction or holes in the epithelia result in TEER values below 100 Ω.cm^2. When an epithelium is damaged, a decrease of TEER would be associated with an increase of LDH release or a decrease of the cell viability. In this example, TEER was measured after addition of 200 µl of culture medium to the apical compartment of the inserts (i.e. during the washing step). TEER was measured with an EVOMX volt-ohm-meter (World Precision Instruments UK, Stevenage) for each condition. Resistance values (Q) were converted to TEER (Ω.cm^2) using the following formula: TEER (Ω.cm^2) = (resistance value (Ω) - 100 (Ω)) x 0.33 (cm^2), where 100 Q is the resistance of the membrane and 0.33 cm^2 is the total surface of the epithelium in one insert. The TEER measurement was conducted as follows: 200µl of culture medium was added on apical surface of each insert. The EVOMX was turned on. […] Then, the resistance (Q) was measured with the EVOMX in the Ohms measurement function.

| Compound | Cilia beating frequency (CBF) [1] | Mean viral genome copy number, Log 10 ((Copies/ml) + 1) (human coronavirus OC43; T4h) | Mean viral genome copy number, Log 10 ((Copies/ml) + 1) (human coronavirus OC43; T24h) | Mean viral genome copy number, Log 10 ((Copies/ml) + 1) (human coronavirus OC43; T48h) | Mean viral genome copy number, Log 10 ((Copies/ml) + 1) (human coronavirus OC43; T72h) | Mean viral genome copy number, Log 10 ((Copies/ml) + 1) (human coronavirus OC43; T96h) | Apical genome copy number in comparison to negative control (human coronavirus OC43; each timepoint T24h - T96h) | TEER [2] |
| --- | --- | --- | --- | --- | --- | --- | --- | --- |
| N#C[C@@]1(c2ccc3c(N)ncnn23)O[C@H](CO)[C@@H](O)[C@H]1O [Positive antiviral control, GS-441524] | about 15 Hz | 0.00 Log 10 ((Copies/ml) + 1) | 0.00 Log 10 ((Copies/ml) + 1) | 0.00 Log 10 ((Copies/ml) + 1) | 5.21 Log 10 ((Copies/ml) + 1) | 4.69 Log 10 ((Copies/ml) + 1) | statistically significantly reduced | – |
| Polyethylene glycol tert-octylphenyl ether [positive controls for cytotoxicity] | – | – | – | – | – | – | – | below 100 Ω.cm^2 |
